Measured values reported in patent US9643953B2, “Substituted benzylpyrazoles” (Bayer Intellectual Property GmbH, priority 2011, dated 2017).
Read-outs that look alike come from different tables or passages of the source.

How the values were obtained:
[1] = target: T1, catalytic domain of human Bub1 (amino acids 704-1085) (Homo sapiens, UniProt O43683); assay: Bub1 kinase assay (TR-FRET); type: biochemical; settings: ATP 10 μM, peptide substrate 1 μM, 60 min at 22° C.
T1 construct: catalytic domain of human Bub1 (amino acids 704-1085); His6 (N); made in house; host or cells: Hi5 insect cells
Experimental: To this end, 100-fold concentrated compound solutions (in DMSO) were previously prepared by serial dilution (1:3.4) of 2 mM stocks in a clear low volume 384-well source microtiter plate (Greiner Bio-One, Frickenhausen, Germany), from which 50 nl of compounds were transferred into a black low volume test microtiter plate from the same supplier. […] The resulting mixture (5 μl final volume) was incubated at 22° C. during 60 min., and the reaction was stopped by the addition of 5 μl of an aqueous EDTA-solution (50 mM EDTA, in 100 mM HEPES pH 7.5 and 0.2% (w/v) bovine serum albumin) which also contained the TR-FRET detection reagents (0.2 μM streptavidin-XL665 [Cisbio Bioassays, Codolet, France] and 1 nM anti-phosho-Serine antibody [Merck Millipore, cat. #35-001] and 0.4 nM LANCE EU-W1024 labeled anti-mouse IgG antibody [Perkin-Elmer, product no. AD0077, alternatively a Terbium-cryptate-labeled anti-mouse IgG antibody from Cisbio Bioassays can be used]). The stopped reaction mixture was further incubated 1 h at 22° C. in order to allow the formation of complexes between peptides and detection reagents. Subsequently, the amount of product was evaluated by measurement of the resonance energy transfer from the Eu-chelate-antibody complex recognizing the Phosphoserine residue to the streptavidin-XL665 bound to the biotin moiety of the peptide. […] IC50 values were calculated by fitting the normalized inhibition data to a 4-parameter logistic equation (Minimum, Maximum, IC50, Hill; Y=Max+(Min−Max)/(1+(X/IC50)Hill)).

HeLa cell line = assay: Proliferation assay (HeLa cell line); settings: Homo sapiens, HeLa, 96 h;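 further: crystal violet staining of cell number, absorbance read at 595 nm, compounds tested at 0.001–10 µM, zero-point plate taken as 0% and untreated cells as 100%, four-parameter fit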
Experimental: (§1) Cultivated tumor cells (cells were ordered from ATCC, except HeLa-MaTu and HeLa-MaTu-ADR, which were ordered from EPO-GmbH, Berlin) were plated at a density of 1000 to 5000 cells/well, depending on the growth rate of the respective cell line, in a 96-well multititer plate in 200 μL of their respective growth medium supplemented 10% fetal calf serum. After 24 hours, the cells of one plate (zero-point plate) were stained with crystal violet (see below), while the medium of the other plates was replaced by fresh culture medium (200 μl), to which the test substances were added in various concentrations (0 μM, as well as in the range of 0.001-10 μM; the final concentration of the solvent dimethyl sulfoxide was 0.5%). The cells were incubated for 4 days in the presence of test substances. Cell proliferation was determined by staining the cells with crystal violet: the cells were fixed by adding 20 μl/measuring point of an 11% glutaric aldehyde solution for 15 minutes at room temperature. After three washing cycles of the fixed cells with water, the plates were dried at room temperature. The cells were stained by adding 100 μl/measuring point of a 0.1% crystal violet solution (pH 3.0). After three washing cycles of the stained cells with water, the plates were dried at room temperature. The dye was dissolved by adding 100 μl/measuring point of a 10% acetic acid solution. Absorption was determined by photometry at a wavelength of 595 nm. The change of cell number, in percent, was calculated by normalization of the measured values to the absorption values of the zero-point plate (=0%) and the absorption of the untreated (0 μm) cells (=100%). The IC50 values were determined by means of a 4 parameter fit.

H460 cell line = assay: Proliferation assay (H460 cell line); settings: Homo sapiens, NCI-H460, 96 h, read-out: Biological Assay 2: Proliferation assay (H460 cell line) median IC50
Experimental: as §1

DU145 cell line = assay: Proliferation assay (DU145 cell line); settings: Homo sapiens, DU-145, 96 h, read-out: Biological Assay 2: Proliferation assay (DU145 cell line) median IC50
Experimental: as §1

Caco2 cell line = assay: Proliferation assay (Caco2 cell line); settings: Homo sapiens, Caco-2, 96 h, read-out: Biological Assay 2: Proliferation assay (Caco2 cell line) median IC50
Experimental: as §1

B16F10 cell line = assay: Proliferation assay (B16F10 cell line); settings: Mus musculus, B16-F10, 96 h, read-out: Biological Assay 2: Proliferation assay (B16F10 cell line) median IC50
Experimental: as §1

HeLa-MaTu-ADR cell line = assay: Proliferation assay (HeLa-MaTu-ADR cell line); settings: 96 h, read-out: Biological Assay 2: Proliferation assay (HeLa-MaTu-ADR cell line) median IC50
Experimental: as §1

[2] = TR-FRET, read-out: Biological Assay 1: Bub1 kinase assay median IC50
[3] = read-out: Biological Assay 2: Proliferation assay (HeLa cell line) median IC50
[4] = read-out: Biological Assay 2: Proliferation assay (HeLa cell line) median IC50, HeLa cells, 4 days incubation, crystal violet staining
[5] = Biological Assay 1: Bub1 kinase assay median IC50, TR-FRET

T1 sequence (O43683 704-1085): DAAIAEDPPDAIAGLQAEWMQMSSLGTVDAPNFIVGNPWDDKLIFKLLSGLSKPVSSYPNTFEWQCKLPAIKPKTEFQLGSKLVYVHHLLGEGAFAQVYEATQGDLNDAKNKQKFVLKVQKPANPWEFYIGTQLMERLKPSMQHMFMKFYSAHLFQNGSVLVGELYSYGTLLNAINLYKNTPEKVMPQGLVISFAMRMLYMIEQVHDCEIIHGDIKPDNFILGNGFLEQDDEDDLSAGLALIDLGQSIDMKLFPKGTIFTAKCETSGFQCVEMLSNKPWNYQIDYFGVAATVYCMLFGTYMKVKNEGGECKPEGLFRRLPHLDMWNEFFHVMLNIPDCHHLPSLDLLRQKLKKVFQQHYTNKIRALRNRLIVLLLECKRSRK

Row | Compound | IC50 (HeLa cell line; [3]) [µM] | IC50 [1, 5] [µM] | IC50 [1, 2] [µM] | further results
1 | CCOc1cc(F)c(Cn2nc(-c3ncc(O)c(Nc4ccncc4)n3)c(C)c2C2CC2)c(Sc2ccccc2)c1 [Example 2-2-2, 2-{5-cyclopropyl-1-[4-ethoxy-2-fluoro-6-(phenylsulfanyl)benzyl]-4-methyl-1H-pyrazol-3-yl}-4-(pyridin-4-ylamino)pyrimidin-5-ol] |  |  | 0.0539 | IC50 (HeLa cell line; [4]): 4.97 µM
2 | CCOc1cc(F)c(Cn2nc(-c3ncc(OCC4(CO)COC4)c(Nc4ccncc4)n3)c(C)c2C2CC2)c(F)c1 [Example 2-3-2, {3-[({2-[5-cyclopropyl-1-(4-ethoxy-2,6-difluorobenzyl)-4-methyl-1H-pyrazol-3-yl]-4-(pyridin-4-ylamino)pyrimidin-5-yl}oxy)methyl]oxetan-3-yl}methanol] | 6 | 0.00523 |  | 
3 | CCOc1cc(F)c(Cn2nc(-c3ncc(OCCSC)c(Nc4ccncc4)n3)c(C)c2C2CC2)c(F)c1 [Example 2-3-4, 2-[5-cyclopropyl-1-(4-ethoxy-2,6-difluorobenzyl)-4-methyl-1H-pyrazol-3-yl]-5-[2-(methylsulfanyl)ethoxy]-N-(pyridin-4-yl)pyrimidin-4-amine] | 5.57 | 0.0108 |  | 
4 | CCOc1cc(F)c(Cn2nc(-c3ncc(OCC4(CO)COC4)c(Nc4ccncc4)n3)c(C)c2C2CC2)c(Sc2ccccc2)c1 [Example 2-3-9, [3-({[2-{5-cyclopropyl-1-[4-ethoxy-2-fluoro-6-(phenylsulfanyl)benzyl]-4-methyl-1H-pyrazol-3-yl}-4-(pyridin-4-ylamino)pyrimidin-5-yl]oxy}methyl)oxetan-3-yl]-methanol] |  |  | 0.249 | IC50 (HeLa cell line; [4]): 6.46 µM
5 | COc1cnc(-c2cc(OC)n(Cc3ccccc3F)n2)nc1Nc1ccncc1C(N)=O [Example 2-4-1, 4-({2-[1-(2-fluorobenzyl)-5-methoxy-1H-pyrazol-3-yl]-5-methoxypyrimidin-4-yl}amino)pyridine-3-carboxamide] | > 10 |  | 0.0415 | 
6 | CCOc1cc(F)c(Cn2nc(-c3nccc(Nc4ccncc4C#N)n3)c(C)c2C2CC2)c(F)c1 [Example 2-6-6, 4-({2-[5-cyclopropyl-1-(4-ethoxy-2,6-difluorobenzyl)-4-methyl-1H-pyrazol-3-yl]pyrimidin-4-yl}amino)nicotinonitrile] | > 10 | 0.00877 |  | 
7 | CCOc1cc(F)c(Cn2nc(-c3ncc(OCCC[S+](C)[O-])c(Nc4ccncc4)n3)c(C)c2C2CC2)c(F)c1 (stereo not shown) [Example 2-8-4, 2-[5-cyclopropyl-1-(4-ethoxy-2,6-difluorobenzyl)-4-methyl-1H-pyrazol-3-yl]-5-[3-(methylsulfinyl)propoxy]-N-(pyridin-4-yl)pyrimidin-4-amine] |  |  | 0.0079 | IC50 (HeLa cell line; [4]): 4.31 µM
8 | COc1cnc(-c2nn(Cc3c(F)c(F)c(OCC(F)(F)F)c(F)c3F)c(C3CC3)c2C)nc1Nc1ccncc1 [Example 2-10-2, 2-{5-cyclopropyl-4-methyl-1-[2,3,5,6-tetrafluoro-4-(2,2,2-trifluoroethoxy)benzyl]-1H-pyrazol-3-yl}-5-methoxy-N-(pyridin-4-yl)pyrimidin-4-amine] | 5.28 |  | 0.0613 | 

Continued by falling IC50 (HeLa cell line; [3]), values first:

Row | IC50 (HeLa cell line; [3]) [µM] | IC50 [1, 5] [µM] | Compound | IC50 [1, 2] [µM] | further results
9 | 5.17 | 0.00787 | CCOc1cc(F)c(Cn2nc(-c3ncc(OCCS(C)(=O)=O)c(Nc4ccncc4)n3)c(C)c2C2CC2)c(F)c1 [Example 2-9-1, 2-[5-cyclopropyl-1-(4-ethoxy-2,6-difluorobenzyl)-4-methyl-1H-pyrazol-3-yl]-5-[2-(methylsulfonyl)ethoxy]-N-(pyridin-4-yl)pyrimidin-4-amine] |  | 
10 | 4.46 | 0.00932 | CCOc1cc(F)c(Cn2nc(-c3nccc(Nc4ccncc4C(N)=O)n3)c(C)c2C2CC2)c(F)c1 [Example 2-4-3, 4-({2-[5-cyclopropyl-1-(4-ethoxy-2,6-difluorobenzyl)-4-methyl-1H-pyrazol-3-yl]pyrimidin-4-yl}amino)nicotinamide] |  | 
11 | 4.38 |  | CCOc1cc(F)c(Cn2nc(-c3ncc(OC)c(Nc4ccncc4)n3)c(C)c2C2CC2)c(F)c1 [Example 2-1-12, 2-[5-cyclopropyl-1-(4-ethoxy-2,6-difluorobenzyl)-4-methyl-1H-pyrazol-3-yl]-5-methoxy-N-(pyridin-4-yl)pyrimidin-4-amine] | 0.00603 | IC50 (H460 cell line): 2.62 µM; IC50 (DU145 cell line): 3.09 µM; IC50 (Caco2 cell line): 2.13 µM; IC50 (B16F10 cell line): 2.24 µM; IC50 (HeLa-MaTu-ADR cell line): 3.08 µM
12 | 3.59 | 0.00786 | CCOc1cc(F)c(Cn2nc(-c3ncc(OCCO)c(Nc4ccncc4)n3)c(C)c2C2CC2)c(F)c1 [Example 2-3-3, 2-({2-[5-cyclopropyl-1-(4-ethoxy-2,6-difluorobenzyl)-4-methyl-1H-pyrazol-3-yl]-4-(pyridin-4-ylamino)pyrimidin-5-yl}oxy)ethanol] |  | 
13 | 3.45 | 0.00745 | CCOc1cc(F)c(Cn2nc(-c3ncc(OCCN(C)C)c(Nc4ccncc4)n3)c(C)c2C2CC2)c(F)c1 [Example 2-3-1, 2-[5-cyclopropyl-1-(4-ethoxy-2,6-difluorobenzyl)-4-methyl-1H-pyrazol-3-yl]-5-[2-(dimethylamino)ethoxy]-N-(pyridin-4-yl)pyrimidin-4-amine] |  | IC50 (H460 cell line): 1.46 µM; IC50 (DU145 cell line): 3.2 µM; IC50 (Caco2 cell line): 1.94 µM; IC50 (B16F10 cell line): 0.422 µM; IC50 (HeLa-MaTu-ADR cell line): 1.26 µM
14 | 3.23 | 0.0105 | CCOc1cc(F)c(Cn2nc(-c3ncc(OC)c(Nc4ccncc4C(N)=O)n3)c(C)c2C2CC2)c(F)c1 [Example 2-4-2, 4-({2-[5-cyclopropyl-1-(4-ethoxy-2,6-difluorobenzyl)-4-methyl-1H-pyrazol-3-yl]-5-methoxypyrimidin-4-yl}amino)nicotinamide] |  | 
15 | 3.2 | 0.00555 | CCOc1cc(F)c(Cn2nc(-c3ncc(OCS(N)(=O)=O)c(Nc4ccncc4)n3)c(C)c2C2CC2)c(F)c1 [Example 2-3-5, 1-({2-[5-cyclopropyl-1-(4-ethoxy-2,6-difluorobenzyl)-4-methyl-1H-pyrazol-3-yl]-4-(pyridin-4-ylamino)pyrimidin-5-yl}oxy)methanesulfonamide] |  | 
16 | 2.96 | 0.0137 | CCOc1cc(F)c(Cn2nc(-c3ncc(OCCCSC)c(Nc4ccncc4)n3)c(C)c2C2CC2)c(F)c1 [Example 2-3-8, 2-[5-cyclopropyl-1-(4-ethoxy-2,6-difluorobenzyl)-4-methyl-1H-pyrazol-3-yl]-5-[3-(methylsulfanyl)propoxy]-N-(pyridin-4-yl)pyrimidin-4-amine] |  | 
17 | 1.13 | 0.00949 | CCOc1cc(F)c(Cn2nc(-c3ncc(OCCCS(C)(=O)=O)c(Nc4ccncc4)n3)c(C)c2C2CC2)c(F)c1 [Example 2-3-10, 2-[5-cyclopropyl-1-(4-ethoxy-2,6-difluorobenzyl)-4-methyl-1H-pyrazol-3-yl]-5-[3-(methylsulfonyl)propoxy]-N-(pyridin-4-yl)pyrimidin-4-amine] |  | IC50 (H460 cell line): 1.55 µM; IC50 (DU145 cell line): 1.61 µM; IC50 (Caco2 cell line): 1.41 µM; IC50 (B16F10 cell line): 1.18 µM; IC50 (HeLa-MaTu-ADR cell line): 0.755 µM
